Source: patent US9382295B2, “Cyclic depsipeptide compounds and their uses” (Cypralis Limited, priority 2012, dated 2016)
Converted amounts (≈) assume the structure as drawn. Read-outs that look alike come from different tables or passages of the source. Numbered stars: 1 amine (or outer) side, 2 acyl side, 3 side chain; on linkers, the order of the positions; unused ones are H or OH. Square brackets hold non-standard residues; d marks the D form. Peptide text beside a SMILES is read from it. X26 = C[C@H](C/C=C/c1cccc(N2CCOCC2)n1)[C@@H](O)[C@H](C(=O)[*:2])N(C)[*:1]; X19 = C[C@H](CCN1CCCC(C(F)(F)F)C1)[C@@H](O)[C@H](C(=O)[*:2])N(C)[*:1]; X20 = C[C@H](CCN1CCC(F)(F)CC1)[C@@H](O)[C@H](C(=O)[*:2])N(C)[*:1]; X12 = C[C@H](CCN(C)Cc1ccncc1)[C@@H](O)[C@H](C(=O)[*:2])N(C)[*:1]; X23 = COC1CN(CC[C@@H](C)[C@@H](O)[C@H](C(=O)[*:2])N(C)[*:1])C1; X15 = C[C@H](CCN1CCCCC1CO)[C@@H](O)[C@H](C(=O)[*:2])N(C)[*:1]; X16 = C[C@H](CCN1CCOCC1)[C@@H](O)[C@H](C(=O)[*:2])N(C)[*:1]; d(aThr) = C[C@@H](O)[C@@H](N)C(=O)O; NMeL = CN[C@@H](CC(C)C)C(=O)O; dNMeL = CN[C@H](CC(C)C)C(=O)O; dNMeV = CN[C@@H](C(=O)O)C(C)C; Hiv = CC(C)[C@H](O)C(=O)O; dAbu = CC[C@@H](N)C(=O)O; Sar = CNCC(=O)O

Experiments:
cyclophilin D (Cyp D) = cyclophilin D (Cyp D) (Homo sapiens, UniProt P30405); assay: Protease-free PPIase assay, cyclophilin D; type: biochemical
Chain of cyclophilin D (Cyp D) (P30405 30-207): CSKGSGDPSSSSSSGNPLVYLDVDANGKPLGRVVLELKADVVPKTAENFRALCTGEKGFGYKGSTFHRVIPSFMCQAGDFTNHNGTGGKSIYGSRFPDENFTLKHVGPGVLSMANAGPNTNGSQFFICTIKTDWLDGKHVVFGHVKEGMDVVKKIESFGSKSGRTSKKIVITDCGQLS
Method: (§1) The protease-free PPIase assay measures the rate of cis to trans conversion of a peptide substrate catalyzed by the enzymes cyclophilin A and cyclophilin D. Addition of a cyclophilin inhibitor (e.g., a test compound) slows the catalyzed rate and a Ki value is obtained. […] 35 mM HEPES pH 7.8, filtered through a 0.2 μm filter. 50 μM DTT was added prior to use each day and then the buffer was stored on ice. Succinimide-[…]) (from Bachem AG, L-1400), 20 mg/ml prepared in 0.5 M LiCl in trifluoroethanol. All readings were taken with an Agilent 8453 Spectrophotometer which consists of a cuvette holder, stirrer and chiller to maintain a stirred cuvette temperature of 10.0±0.1° C. The temperature is monitored by the use of temperature probe. […] The inhibitor was diluted in 100% DMSO, and then added to the assay to a maximum final concentration of 0.5% DMSO in the assay. A blank spectrum was obtained, then 3 μL of enzyme was added (2 nM final concentration) and then 3 μL substrate (60 μM final concentration) added. The absorbance was measured at 330 nm for 300 s or 500 s for blank runs (NOTE: the substrate must be added in one quick injection and the measurements started immediately to minimize mixing errors). A first order rate equation was fitted to the absorbance data, for each concentration of inhibitor, to obtain the rate constant (the first 10 to 15 seconds were excluded as mixing causes errors in this portion of curve). The catalytic rate was calculated from the enzymatic rate constant minus the background rate constant. An exponential curve was generated using the catalytic rate constants versus the inhibitor concentration to obtain the Ki value for the inhibitor. The Ki value is indicative of the binding affinity between the test compound and cyclophilin A or cyclophilin D.

cyclophilin A (Cyp A) = molecular target: T1, cyclophilin A (Cyp A) (Homo sapiens, UniProt P62937); assay: Protease-free PPIase assay, cyclophilin A; type: biochemical
T1 construct: purchased Sigma C3805
T1 sequence (P62937 whole entry): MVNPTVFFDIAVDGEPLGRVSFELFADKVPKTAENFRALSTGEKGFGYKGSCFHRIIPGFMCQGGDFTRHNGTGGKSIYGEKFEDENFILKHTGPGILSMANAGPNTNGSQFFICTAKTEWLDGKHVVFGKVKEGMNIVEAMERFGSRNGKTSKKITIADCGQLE
Method: as §1, with “ice. Human recombinant cyclophilin A (Cyp A) (Sigma C3805) enzyme was diluted to 1 μM with enzyme dilution buffer (20 mM HEPES pH 7.8, 40% glycerol, 50 μM DTT and 1 μM BSA) and stored at -20° C.” for “ice.”

[1] = Water solubility assay (pH 7.8 buffer); type: physicochemical
Method: ***Water Solubility Assay (Measured in pH 7.8 Buffer)
The onset of precipitation, if it occurred, was detected by an increase in absorbance at 650 nm.
Assay Buffer: 35 mM HEPES pH 7.8
Stock solutions of Control and Test Compounds: 10 mM in 100% DMSO
10 mM stock solutions of control and test compounds were prepared in 100% DMSO. A series of dilutions were prepared from the stock in DMSO so that the final concentrations in the assay were 0, 3.33, 10, 25, 50, 75 and 100 μM and DMSO was limited to 1%.
Assay buffer (247.5 μl) was placed into flat bottomed transparent 96-well plate. For blank samples DMSO (2.5 μl) was added. For test and control samples 2.5 μl of the appropriate DMSO dilution stocks were added to the appropriate well. All test and control compounds were performed in triplicate.
The plates were sealed with adhesive plate seal and shaken at 250 rpm at 25° C. for 18 h on a plate shaker.
After incubation the plate seals were taken off and any bubbles observed in wells removed. The plates were read on a SpectraMaxM5 with a 5 s pre-shake at 650 nm.
Data files were transferred to the appropriate worksheet and the solubility range of the compounds was calculated from the data.
The values shown in the tables indicate the concentration in μM (micromolar) at which the compound remains in solution.

[2] = protease-free PPIase assay, class symbols, read-out: CypD Ki
[3] = protease-free PPIase assay, class symbols, read-out: CypA Ki
[4] = 35 mM HEPES buffer, 35 mM HEPES pH 7.8, 1% DMSO, 25° C., 18 h, concentration at which compound remains in solution, read-out: Solubility

Ki (cyclophilin D (Cyp D)) [nM] | Ki (cyclophilin A (Cyp A)) [nM] | solubility at 18 h ([1]; pH 7.8) [µM] | Ki (cyclophilin D (Cyp D); [2]) [nM] | Ki (cyclophilin A (Cyp A); [3]) [nM] | solubility at 18 h [1, 4] [µM] | SMILES
1 to 25 | 25 to 100 | 50 to 75 (≈ 66 to 99.1 µg/mL) | – | – | – | CO[C@H](C)[C@H]1NC(=O)[C@@H]([C@H](O)[C@H](C)CCN2CCOCC2)N(C)C(=O)[C@@H](C(C)C)N(C)C(=O)[C@@H](CC(C)C)NC(=O)[C@@H](CC(C)C)N(C)C(=O)[C@H](C(C)C)OC(=O)[C@@H](C)NC(=O)[C@@H](CC(C)C)N(C)C(=O)[C@@H](CC(C)C)NC(=O)[C@H](CC(C)C)N(C)C(=O)CN(C)C1=O (stereo in doubt) [Example 7, cyclo-[(3R,4R,5S)-4-(hydroxy)-3-methyl-5-(methylamino)-1-N-morpholino-hexanoic acid-(O-methyl-Thr)-Sar-MeLeu-Leu-MeLeu-Ala-D-Hiv-MeLeu-Leu-MeVal]]
1 to 25 | 1 to 25 | 25 to 50 (≈ 33.5 to 67 µg/mL) | – | – | – | CC(C)C[C@@H]1C(=O)N[C@H](CC(C)C)C(=O)N(C)[C@H](C(C)C)C(=O)N(C)[C@H]([C@H](O)[C@H](C)CCN2CCC(F)(F)CC2)C(=O)N[C@H]([C@@H](C)O)C(=O)N(C)CC(=O)N(C)[C@@H](CC(C)C)C(=O)N[C@H](CC(C)C)C(=O)N(C)[C@H](CC(C)C)C(=O)N[C@H](C)C(=O)O[C@@H](C(C)C)C(=O)N1C [Example 24, cyclo-[(3R,4R,5S)-4-(hydroxy)-3-methyl-5-(methylamino)-1-N-(4,4-difluoro-piperidine)-hexanoic acid-Thr-Sar-MeLeu-Leu-MeLeu-Ala-D-Hiv-MeLeu-Leu-MeVal]] (cyclo([Hiv][dNMeL][dL][dNMeV][X20][d(aThr)][Sar][NMeL][dL][dNMeL][dA]))
1 to 25 | 1 to 25 | 25 to 50 (≈ 32.3 to 64.5 µg/mL) | – | – | – | CC[C@H]1NC(=O)[C@@H]([C@H](O)[C@H](C)CCN2CCOCC2)N(C)C(=O)[C@@H](C(C)C)N(C)C(=O)[C@@H](CC(C)C)NC(=O)[C@@H](CC(C)C)N(C)C(=O)[C@H](C(C)C)OC(=O)[C@@H](C)NC(=O)[C@@H](CC(C)C)N(C)C(=O)[C@@H](CC(C)C)NC(=O)[C@H](CC(C)C)N(C)C(=O)CN(C)C1=O [Example 13, cyclo-[(3R,4R,5S)-4-(hydroxy)-3-methyl-5-(methylamino)-1-N-morpholino-hexanoic acid-Abu-Sar-MeLeu-Leu-MeLeu-Ala-D-Hiv-MeLeu-Leu-MeVal]] (cyclo([Hiv][dNMeL][dL][dNMeV][X16][dAbu][Sar][NMeL][dL][dNMeL][dA]))
25 to 100 | 100 to 300 | > 100 | – | – | – | CC(C)C[C@@H]1C(=O)N[C@H](CC(C)C)C(=O)N(C)[C@H](C(C)C)C(=O)N(C)[C@H]([C@H](O)[C@H](C)CCN2CCCCC2CO)C(=O)N[C@H]([C@@H](C)O)C(=O)N(C)CC(=O)N(C)[C@@H](CC(C)C)C(=O)N[C@H](CC(C)C)C(=O)N(C)[C@H](CC(C)C)C(=O)N[C@H](C)C(=O)O[C@@H](C(C)C)C(=O)N1C (stereo partly drawn) [Example 39, cyclo-[(2R,3R,4S)-4-hydroxy-1-(2-hydroxymethyl-piperidin-1-yl)-3-methyl-5-methylamino-hexanoic acid-Thr-Sar-MeLeu-Leu-MeLeu-Ala-D-Hiv-MeLeu-Leu-MeVal]] (cyclo([Hiv][dNMeL][dL][dNMeV][X15][d(aThr)][Sar][NMeL][dL][dNMeL][dA]))
– | – | – | 1 to 25 | 1 to 25 | 50 to 75 (≈ 67.1 to 101 µg/mL) | CC(C)C[C@@H]1C(=O)N[C@H](CC(C)C)C(=O)N(C)[C@H](C(C)C)C(=O)N(C)[C@H]([C@H](O)[C@H](C)CCN(C)Cc2ccncc2)C(=O)N[C@H]([C@@H](C)O)C(=O)N(C)CC(=O)N(C)[C@@H](CC(C)C)C(=O)N[C@H](CC(C)C)C(=O)N(C)[C@H](CC(C)C)C(=O)N[C@H](C)C(=O)O[C@@H](C(C)C)C(=O)N1C [Example 3, cyclo-[(3R,4R,5S)-4-(hydroxy)-3-methyl-5-(methylamino)-1-N-(methyl-pyridin-4-ylmethyl-amino)-hexanoic acid-Thr-Sar-MeLeu-Leu-MeLeu-Ala-D-Hiv-MeLeu-Leu-MeVal]] (cyclo([Hiv][dNMeL][dL][dNMeV][X12][d(aThr)][Sar][NMeL][dL][dNMeL][dA]))
– | – | – | 1 to 25 | 1 to 25 | 10 to 25 (≈ 13.7 to 34.3 µg/mL) | CC(C)C[C@@H]1C(=O)N[C@H](CC(C)C)C(=O)N(C)[C@H](C(C)C)C(=O)N(C)[C@H]([C@H](O)[C@H](C)CCN2CCCC(C(F)(F)F)C2)C(=O)N[C@H]([C@@H](C)O)C(=O)N(C)CC(=O)N(C)[C@@H](CC(C)C)C(=O)N[C@H](CC(C)C)C(=O)N(C)[C@H](CC(C)C)C(=O)N[C@H](C)C(=O)O[C@@H](C(C)C)C(=O)N1C (stereo partly drawn) [Example 9, cyclo-{(3R,4R,5S)-4-(hydroxy)-3-methyl-5-(methylamino)-1-N-[3-trifluoromethyl-piperidinyl]-hexanoic acid-Thr-Sar-MeLeu-Leu-MeLeu-Ala-D-Hiv-MeLeu-Leu-MeVal}] (cyclo([Hiv][dNMeL][dL][dNMeV][X19][d(aThr)][Sar][NMeL][dL][dNMeL][dA]))
– | – | – | 1 to 25 | 1 to 25 | 10 to 25 (≈ 14 to 34.9 µg/mL) | CC(C)C[C@@H]1C(=O)N[C@H](CC(C)C)C(=O)N(C)[C@H](C(C)C)C(=O)N(C)[C@H]([C@H](O)[C@H](C)C/C=C/c2cccc(N3CCOCC3)n2)C(=O)N[C@H]([C@@H](C)O)C(=O)N(C)CC(=O)N(C)[C@@H](CC(C)C)C(=O)N[C@H](CC(C)C)C(=O)N(C)[C@H](CC(C)C)C(=O)N[C@H](C)C(=O)O[C@@H](C(C)C)C(=O)N1C [Example 18, cyclo-{(3R,4R,5S)-4-(hydroxy)-3-methyl-5-(methylamino)-1-(6-morpholin-4-yl-pyridin-2-yl)-hept-1-enoic acid-Thr-Sar-MeLeu-Leu-MeLeu-Ala-D-Hiv-MeLeu-Leu-MeVal}] (cyclo([Hiv][dNMeL][dL][dNMeV][X26][d(aThr)][Sar][NMeL][dL][dNMeL][dA]))
1 to 25 | 1 to 25 | > 100 | – | – | – | COC1CN(CC[C@@H](C)[C@@H](O)[C@@H]2C(=O)N[C@H]([C@@H](C)O)C(=O)N(C)CC(=O)N(C)[C@@H](CC(C)C)C(=O)N[C@H](CC(C)C)C(=O)N(C)[C@H](CC(C)C)C(=O)N[C@H](C)C(=O)O[C@@H](C(C)C)C(=O)N(C)[C@H](CC(C)C)C(=O)N[C@H](CC(C)C)C(=O)N(C)[C@H](C(C)C)C(=O)N2C)C1 [Example 11, cyclo-{(3R,4R,5S)-4-(hydroxy)-3-methyl-5-(methylamino)-1-N-(3-methoxy-azetidinyl)-hexanoic acid-Thr-Sar-MeLeu-Leu-MeLeu-Ala-D-Hiv-MeLeu-Leu-MeVal}] (cyclo([Hiv][dNMeL][dL][dNMeV][X23][d(aThr)][Sar][NMeL][dL][dNMeL][dA]))
